{
  "source": "ChEMBL document CHEMBL1201862",
  "about": "“PubChem BioAssay data set” (2004)",
  "key": {"[1]": {"biological_target": "T1, Corticotropin-releasing factor receptor 2/Corticotropin-releasing factor-binding protein (Homo sapiens, UniProt P24387+Q13324)", "T1 sequence (Q13324 whole entry)": "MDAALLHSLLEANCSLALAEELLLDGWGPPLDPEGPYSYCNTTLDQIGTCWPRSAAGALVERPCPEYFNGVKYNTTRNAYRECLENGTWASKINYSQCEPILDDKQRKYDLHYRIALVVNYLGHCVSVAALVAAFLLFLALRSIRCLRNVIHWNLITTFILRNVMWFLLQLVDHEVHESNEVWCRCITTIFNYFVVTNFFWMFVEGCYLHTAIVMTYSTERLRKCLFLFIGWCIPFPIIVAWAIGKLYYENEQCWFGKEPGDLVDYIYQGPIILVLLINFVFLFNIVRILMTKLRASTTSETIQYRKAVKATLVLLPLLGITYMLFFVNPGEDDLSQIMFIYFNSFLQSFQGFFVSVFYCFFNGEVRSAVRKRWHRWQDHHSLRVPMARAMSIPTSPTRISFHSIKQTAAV", "T1 sequence (P24387 whole entry)": "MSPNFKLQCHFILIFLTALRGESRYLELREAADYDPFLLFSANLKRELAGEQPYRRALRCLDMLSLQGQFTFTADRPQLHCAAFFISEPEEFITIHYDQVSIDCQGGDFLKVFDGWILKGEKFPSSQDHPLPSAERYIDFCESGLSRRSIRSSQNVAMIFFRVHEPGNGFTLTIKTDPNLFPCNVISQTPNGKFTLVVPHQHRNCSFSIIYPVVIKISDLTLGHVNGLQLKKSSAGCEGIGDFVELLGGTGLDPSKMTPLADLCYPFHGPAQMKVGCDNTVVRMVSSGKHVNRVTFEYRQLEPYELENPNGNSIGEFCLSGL", "assay": "activators of CRF receptor 2 with binding protein – uHTS hits, confirmation (AID 602473)", "format": "functional", "conditions": "read-out: EC50_Mean"}, "[2]": {"biological_target": "T1, Corticotropin-releasing factor receptor 2/Corticotropin-releasing factor-binding protein", "assay": "Dose Response confirmation of uHTS hits for small molecule antagonists of the CRF-binding protein and CRF-R2 receptor complex.", "format": "functional", "conditions": "read-out: IC50_Mean"}, "[3]": {"biological_target": "T2, Polyadenylate-binding protein 1 (Homo sapiens, UniProt P11940)", "T2 sequence (P11940 whole entry)": "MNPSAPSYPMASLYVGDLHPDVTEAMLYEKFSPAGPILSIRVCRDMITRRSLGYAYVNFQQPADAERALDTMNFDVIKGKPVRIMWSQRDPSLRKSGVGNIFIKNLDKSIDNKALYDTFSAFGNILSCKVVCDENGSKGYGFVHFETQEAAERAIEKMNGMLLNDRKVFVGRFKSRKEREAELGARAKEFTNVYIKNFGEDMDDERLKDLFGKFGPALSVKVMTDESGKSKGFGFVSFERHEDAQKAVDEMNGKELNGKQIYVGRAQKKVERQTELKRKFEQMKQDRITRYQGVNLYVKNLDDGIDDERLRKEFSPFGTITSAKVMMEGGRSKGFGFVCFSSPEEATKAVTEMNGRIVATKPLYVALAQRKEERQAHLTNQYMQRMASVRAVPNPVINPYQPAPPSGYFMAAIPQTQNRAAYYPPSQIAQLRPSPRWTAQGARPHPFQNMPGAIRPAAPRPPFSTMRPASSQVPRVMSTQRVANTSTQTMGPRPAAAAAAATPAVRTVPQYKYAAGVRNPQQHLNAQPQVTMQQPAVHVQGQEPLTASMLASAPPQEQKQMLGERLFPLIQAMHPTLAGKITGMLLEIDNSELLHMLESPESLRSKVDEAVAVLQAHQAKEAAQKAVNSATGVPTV", "assay": "PABP1 MLLE–PAM2 interaction inhibitors, dose response, miRNA deadenylation inhibitor project, biochemical, fluorescence polarization, Cy5-PAM2 peptide, secondary (AID 602260)", "format": "functional", "conditions": "read-out: IC50_Mean"}, "[4]": {"biological_target": "T2, Polyadenylate-binding protein 1", "assay": "PABP1 MLLE–PAM2 binding inhibitor potency, dose response, biochemical, fluorescence polarization, FITC-PAM2 peptide (AID 602259)", "format": "functional", "conditions": "read-out: IC50_Mean"}, "[5]": {"biological_target": "Cytochrome P450 3A4 (Homo sapiens, UniProt P08684)", "sequence (P08684 whole entry)": "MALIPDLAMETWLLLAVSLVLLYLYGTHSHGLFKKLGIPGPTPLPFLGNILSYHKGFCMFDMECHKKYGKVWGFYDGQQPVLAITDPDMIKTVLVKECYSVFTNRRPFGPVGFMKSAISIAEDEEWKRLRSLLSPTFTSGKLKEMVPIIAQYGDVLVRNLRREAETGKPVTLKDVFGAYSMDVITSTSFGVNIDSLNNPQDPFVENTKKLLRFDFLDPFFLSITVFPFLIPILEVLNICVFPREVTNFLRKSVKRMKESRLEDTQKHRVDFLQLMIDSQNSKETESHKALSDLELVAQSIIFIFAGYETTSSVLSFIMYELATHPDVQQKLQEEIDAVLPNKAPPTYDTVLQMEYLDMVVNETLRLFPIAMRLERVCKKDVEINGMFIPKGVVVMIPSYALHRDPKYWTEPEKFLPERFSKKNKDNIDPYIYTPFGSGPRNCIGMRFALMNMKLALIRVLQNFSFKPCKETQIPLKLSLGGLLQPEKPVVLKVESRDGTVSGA"}, "[6]": {"biological_target": "Cytochrome P450 2C9 (Homo sapiens, UniProt P11712)", "sequence (P11712 whole entry)": "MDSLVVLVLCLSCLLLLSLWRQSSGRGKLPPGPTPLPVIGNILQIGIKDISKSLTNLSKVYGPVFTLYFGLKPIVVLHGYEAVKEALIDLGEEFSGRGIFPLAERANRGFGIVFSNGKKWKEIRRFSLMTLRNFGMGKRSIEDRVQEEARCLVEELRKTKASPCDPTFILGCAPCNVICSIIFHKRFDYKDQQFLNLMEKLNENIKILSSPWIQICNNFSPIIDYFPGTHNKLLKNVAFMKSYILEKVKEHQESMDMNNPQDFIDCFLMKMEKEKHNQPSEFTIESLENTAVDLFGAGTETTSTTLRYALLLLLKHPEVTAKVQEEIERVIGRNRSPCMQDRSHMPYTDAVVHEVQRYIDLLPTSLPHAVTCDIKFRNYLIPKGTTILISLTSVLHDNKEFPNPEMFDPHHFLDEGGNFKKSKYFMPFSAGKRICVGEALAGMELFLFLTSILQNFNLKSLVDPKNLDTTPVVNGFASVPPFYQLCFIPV"}, "[7]": {"biological_target": "Cytochrome P450 2D6 (Homo sapiens, UniProt P10635)", "sequence (P10635 whole entry)": "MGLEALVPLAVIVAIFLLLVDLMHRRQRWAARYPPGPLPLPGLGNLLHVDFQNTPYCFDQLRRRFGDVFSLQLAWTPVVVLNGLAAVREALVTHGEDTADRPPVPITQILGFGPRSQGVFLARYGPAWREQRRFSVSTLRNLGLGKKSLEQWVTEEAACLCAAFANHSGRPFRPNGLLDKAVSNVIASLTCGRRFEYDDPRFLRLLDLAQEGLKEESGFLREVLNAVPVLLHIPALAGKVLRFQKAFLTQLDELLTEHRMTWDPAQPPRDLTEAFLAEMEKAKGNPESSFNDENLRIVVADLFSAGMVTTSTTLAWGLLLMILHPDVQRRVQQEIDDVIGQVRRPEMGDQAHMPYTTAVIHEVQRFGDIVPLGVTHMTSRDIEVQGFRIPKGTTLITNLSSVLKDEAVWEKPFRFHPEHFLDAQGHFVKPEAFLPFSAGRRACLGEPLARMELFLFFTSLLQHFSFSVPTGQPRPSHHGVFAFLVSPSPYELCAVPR"}, "[8]": {"assay": "cells", "format": "functional, cell-based"}, "[9]": {"assay": "cells", "format": "functional, cell-based", "remark": "listed apart in the source"}, "[10]": {"assay": "cells", "format": "functional"}, "[11]": {"test_system": "P388", "assay": "cells", "format": "functional", "conditions": "Mus musculus"}, "[12]": {"test_system": "P388/ADR", "assay": "cells", "format": "functional", "conditions": "Mus musculus"}, "[13]": {"test_system": "SN12K1", "assay": "cells", "format": "functional", "conditions": "Homo sapiens"}, "[14]": {"biological_target": "Cytochrome P450 2C19 (Homo sapiens, UniProt P33261)", "sequence (P33261 whole entry)": "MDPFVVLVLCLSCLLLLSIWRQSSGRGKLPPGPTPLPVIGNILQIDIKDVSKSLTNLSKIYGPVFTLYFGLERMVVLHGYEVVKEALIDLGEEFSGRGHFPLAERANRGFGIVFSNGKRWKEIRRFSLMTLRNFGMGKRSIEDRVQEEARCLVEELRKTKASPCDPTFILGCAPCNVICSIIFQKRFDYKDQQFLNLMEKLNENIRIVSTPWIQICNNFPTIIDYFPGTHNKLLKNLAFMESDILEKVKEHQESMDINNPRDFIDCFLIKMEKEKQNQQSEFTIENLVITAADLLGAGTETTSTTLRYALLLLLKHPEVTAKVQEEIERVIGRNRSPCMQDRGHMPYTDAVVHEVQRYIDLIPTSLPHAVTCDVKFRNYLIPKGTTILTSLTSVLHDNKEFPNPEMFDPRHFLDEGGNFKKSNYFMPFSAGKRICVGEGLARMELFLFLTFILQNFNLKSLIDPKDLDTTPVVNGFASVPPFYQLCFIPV", "assay": "Cytochrome panel assay with activity outcomes. Panel member name: p450-cyp2c19 Compounds with AC50 equal or less than 10 uM are considered active", "format": "functional", "conditions": "read-out: AC50"}},
  "note": "Activity calls are given as the source filed them.",
  "data": [
    {"smiles": "CSc1ccccc1NC(=O)c1cc(CC(C)C)on1", "values": [
      {"measurement": "EC50", "setting": "[1]", "value": "> 53 µM (inactive)"},
      {"measurement": "IC50", "setting": "[2]", "value": "> 47.1 µM (inactive)"}
    ]},
    {"smiles": "Cc1cc(C)n(CC(=O)NNC(=O)COc2ccc(Br)cc2F)n1", "values": [
      {"measurement": "IC50", "setting": "[3]", "value": "> 66 µM (inactive)"},
      {"measurement": "IC50", "setting": "[4]", "value": "> 66 µM (inactive)"}
    ]},
    {"smiles": "CCCc1cc(=O)[nH]c(SCC(=O)Nc2nonc2N)n1", "values": [
      {"measurement": "IC50", "setting": "[3]", "value": "> 66 µM (inactive)"},
      {"measurement": "IC50", "setting": "[4]", "value": "> 66 µM (inactive)"}
    ]},
    {"smiles": "COc1ccc(-n2c(=O)c(-c3cn(C)c4ccccc34)nc3cnc(N4CCNCC4)nc32)cc1", "values": [
      {"measurement": "AC50", "setting": "[5]", "value": "20 µM (inconclusive)"},
      {"measurement": "AC50", "setting": "[6]", "value": "39.8 µM (inconclusive)"},
      {"measurement": "AC50", "setting": "[7]", "value": "20 µM (inconclusive)"}
    ]},
    {"smiles": "O=C(CCCc1ccccc1)Nc1nncs1", "values": [
      {"measurement": "EC50", "setting": "[1]", "value": "> 53 µM (inactive)"},
      {"measurement": "IC50", "setting": "[2]", "value": "> 47.1 µM (inactive)"}
    ]},
    {"smiles": "CCc1nc(N2CCN(C(=O)c3ccco3)CC2)c2c3c(sc2n1)CCCC3", "values": [
      {"measurement": "EC50", "setting": "[8]", "value": "> 350 µM (not active)"}
    ]},
    {"smiles": "Cc1ccc(NC(=O)CSc2ncc3ccccn23)cc1", "values": [
      {"measurement": "EC50", "setting": "[8]", "value": "> 350 µM (not active)"},
      {"measurement": "EC50", "setting": "[9]", "value": "41.4 µM (active)"}
    ]},
    {"smiles": "CCc1c(C)c2ccc(OCC(=O)OC)cc2oc1=O", "values": [
      {"measurement": "IC50", "setting": "[10]", "value": "16.6 µM (active)"}
    ]},
    {"smiles": "O=C(NCCCCCCNC(=O)N1CCCCCC1)N1CCCCCC1", "values": [
      {"measurement": "EC50", "setting": "[1]", "value": "> 53 µM (inactive)"},
      {"measurement": "IC50", "setting": "[2]", "value": "> 47.1 µM (inactive)"}
    ]},
    {"smiles": "O=C1C2=C(C3=NCCc4c[nH]c1c43)c1c(Br)cc(Br)cc1CCN2", "values": [
      {"measurement": "GI50", "setting": "[11]", "value": "2.13 µM (inactive)"},
      {"measurement": "GI50", "setting": "[12]", "value": "2.18 µM (inactive)"},
      {"measurement": "GI50", "setting": "[13]", "value": "3.65 µM (inactive)"}
    ]},
    {"smiles": "COc1ccc(C2NN=C(c3ccc(C)cc3)S2)cc1", "note": "(stereo unspecified)", "values": [
      {"measurement": "EC50", "setting": "[8]", "value": "> 350 µM (not active)"},
      {"measurement": "EC50", "setting": "[9]", "value": "24.6 µM (active)"}
    ]},
    {"smiles": "CC(C)N(C(=O)[C@H]1C[C@H](CC(=O)NCc2ccco2)C(=O)N2CCc3c([nH]c4cc(CCC(=O)N(C)C)ccc34)[C@]12C)C(C)C", "values": [
      {"measurement": "EC50", "setting": "[1]", "value": "> 53 µM (inactive)"},
      {"measurement": "IC50", "setting": "[2]", "value": "> 47.1 µM (inactive)"}
    ]},
    {"smiles": "CC(NCCS(=O)(=O)O)C(=O)O", "note": "(stereo unspecified)", "values": [
      {"measurement": "GI50", "setting": "[11]", "value": "> 100 µM (inactive)"},
      {"measurement": "GI50", "setting": "[12]", "value": "> 100 µM (inactive)"},
      {"measurement": "GI50", "setting": "[13]", "value": "> 100 µM (inactive)"}
    ]},
    {"smiles": "CO/C=C1\\OC(=O)C=C1OC", "values": [
      {"measurement": "GI50", "setting": "[11]", "value": "> 100 µM (inactive)"},
      {"measurement": "GI50", "setting": "[12]", "value": "> 100 µM (inactive)"},
      {"measurement": "GI50", "setting": "[13]", "value": "> 100 µM (inactive)"}
    ]},
    {"smiles": "CN(C)CCNC(=O)c1cccc2[nH]c(-c3ccc(Cl)cc3)nc12", "values": [
      {"measurement": "GI50", "setting": "[11]", "value": "2.48 µM (inactive)"},
      {"measurement": "GI50", "setting": "[12]", "value": "3.2 µM (inactive)"},
      {"measurement": "GI50", "setting": "[13]", "value": "3.48 µM (inactive)"}
    ]},
    {"smiles": "[H]/N=C(/N)N/C(=N/[H])NCCc1ccccc1", "note": "[PHENFORMIN]", "values": [
      {"measurement": "AC50", "setting": "[7]", "value": "10 µM (inconclusive)"}
    ]},
    {"smiles": "Cc1cc(=O)n2nc(N3CCC(C(=O)Nc4c(F)c(F)c(F)c(F)c4F)CC3)sc2n1", "values": [
      {"measurement": "EC50", "setting": "[1]", "value": "> 53 µM (inactive)"},
      {"measurement": "IC50", "setting": "[2]", "value": "> 47.1 µM (inactive)"}
    ]},
    {"smiles": "CC(C)NC[C@@H](O)COc1ccccc1-n1cccc1", "values": [
      {"measurement": "AC50", "setting": "[7]", "value": "31.6 µM (inconclusive)"}
    ]},
    {"smiles": "COc1ccccc1-c1nc(NCc2cccnc2)c2ccccc2n1", "values": [
      {"measurement": "AC50", "setting": "[7]", "value": "20 µM (inconclusive)"},
      {"measurement": "AC50", "setting": "[14]", "value": "39.8 µM (inconclusive)"}
    ]},
    {"smiles": "O=C(NC(=S)Nc1ccccc1Br)c1ccco1", "values": [
      {"measurement": "IC50", "setting": "[3]", "value": "> 66 µM (inactive)"},
      {"measurement": "IC50", "setting": "[4]", "value": "> 66 µM (inactive)"}
    ]},
    {"smiles": "Cc1cc(-c2nnnn2-c2cc(Cl)cc(Cl)c2)no1", "values": [
      {"measurement": "EC50", "setting": "[8]", "value": "> 350 µM (not active)"},
      {"measurement": "EC50", "setting": "[9]", "value": "> 350 µM (not active)"}
    ]},
    {"smiles": "N#Cc1ccc(CN2CCC3(CC2)CCN(C(=O)c2cc(C(F)(F)F)cc(C(F)(F)F)c2)CC3)cc1", "values": [
      {"measurement": "AC50", "setting": "[7]", "value": "39.8 µM (inconclusive)"}
    ]},
    {"smiles": "Cc1ccc(C(=O)N(Cc2sccc2C)C2CCS(=O)(=O)C2)cc1", "note": "(stereo unspecified)", "values": [
      {"measurement": "EC50", "setting": "[1]", "value": "> 53 µM (inactive)"},
      {"measurement": "IC50", "setting": "[2]", "value": "> 47.1 µM (inactive)"}
    ]},
    {"smiles": "CC(C(=O)Nc1ccccc1-c1ccccc1)N1CCN(C(=O)c2ccccc2)CC1", "note": "(stereo unspecified)", "values": [
      {"measurement": "EC50", "setting": "[8]", "value": "> 350 µM (not active)"},
      {"measurement": "EC50", "setting": "[9]", "value": "> 350 µM (not active)"}
    ]},
    {"smiles": "COc1cc(C2(c3ncc[nH]3)SSSCC2O)ccc1O", "note": "(stereo unspecified)", "values": [
      {"measurement": "GI50", "setting": "[11]", "value": "18.7 µM (inactive)"},
      {"measurement": "GI50", "setting": "[12]", "value": "17.8 µM (inactive)"},
      {"measurement": "GI50", "setting": "[13]", "value": "30.5 µM (inactive)"}
    ]}
  ]
}
